Assay results: patent publication US10160755B2 (Plexxikon Inc., priority 2015, dated 2018)

The compounds below were run against T1, BA/F3-FLT3-ITD + F691L cells (Homo sapiens, UniProt P36888, F691L, cells depend on it, form not given) (assay: BA/F3-FLT3-ITD + F691L cell proliferation assay (CellTiter-Glo)). Settings: BaF3 FLT3 ITD/F691L cells; read-out: Cell Activity (IC50 μM) BaF3_FLT3_ITD/F691L.
T1 sequence (P36888 1-993 F691L): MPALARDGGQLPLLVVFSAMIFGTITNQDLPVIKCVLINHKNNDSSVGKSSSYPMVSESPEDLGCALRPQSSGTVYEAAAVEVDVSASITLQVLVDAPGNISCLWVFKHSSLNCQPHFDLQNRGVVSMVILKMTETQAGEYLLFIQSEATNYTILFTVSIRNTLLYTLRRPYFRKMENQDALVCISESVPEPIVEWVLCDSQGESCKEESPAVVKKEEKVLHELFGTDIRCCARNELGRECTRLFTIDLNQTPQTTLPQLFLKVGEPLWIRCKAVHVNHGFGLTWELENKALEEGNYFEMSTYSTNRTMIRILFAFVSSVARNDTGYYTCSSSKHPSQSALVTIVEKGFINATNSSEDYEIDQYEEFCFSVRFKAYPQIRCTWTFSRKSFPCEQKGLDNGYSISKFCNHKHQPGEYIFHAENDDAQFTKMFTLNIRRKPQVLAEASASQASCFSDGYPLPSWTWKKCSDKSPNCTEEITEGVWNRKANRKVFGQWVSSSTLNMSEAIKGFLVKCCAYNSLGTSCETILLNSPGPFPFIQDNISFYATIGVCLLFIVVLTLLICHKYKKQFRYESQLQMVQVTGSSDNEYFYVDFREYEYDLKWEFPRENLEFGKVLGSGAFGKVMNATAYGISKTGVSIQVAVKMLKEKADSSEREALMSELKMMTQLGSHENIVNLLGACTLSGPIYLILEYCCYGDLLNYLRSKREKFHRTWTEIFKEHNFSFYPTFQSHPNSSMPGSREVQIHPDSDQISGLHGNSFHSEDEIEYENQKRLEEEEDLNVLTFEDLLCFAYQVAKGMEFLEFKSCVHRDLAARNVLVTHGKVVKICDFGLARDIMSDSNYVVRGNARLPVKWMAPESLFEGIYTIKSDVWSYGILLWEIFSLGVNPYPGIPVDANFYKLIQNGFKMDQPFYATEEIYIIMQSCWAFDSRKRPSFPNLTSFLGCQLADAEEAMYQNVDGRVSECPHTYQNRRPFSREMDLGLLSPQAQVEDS
Type: cell-based, murine
Summary of the method: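 Murine BA/F3 cells transfected with full-length FLT3 carrying ITD plus D835Y or F691L, grown without IL-3 so growth depends on FLT3. Seeded at 1×10^4 cells/well and dosed with 8 points, 10 to 0.0046 μM, 0.2% DMSO, for three days at 37 °C. IC50 from CellTiter-Glo luminescence (ATP content).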

GI50, 0.0001 to 1 µM:
COc1cc(-c2cnc3[nH]cc(-c4ccc5ncn(C6CCCN(C)C6)c5c4)c3n2)ccn1 (stereo not shown) [P-271, 2-(2-methoxy-4-pyridyl)-7-[3-(1-methyl-3-piperidyl)benzimidazol-5-yl]-5H-pyrrolo[2,3-b]pyrazine]
N#Cc1cc(-c2cnc3[nH]cc(-c4ccc5ncn(C6CCCNC6)c5c4)c3n2)ccc1F (stereo not shown) [P-238, 2-fluoro-5-[7-[3-(3-piperidyl)benzimidazol-5-yl]-5H-pyrrolo[2,3-b]pyrazin-2-yl]benzonitrile]
COC(=O)N1CCCC(n2cnc3ccc(-c4c[nH]c5ncc(-c6ccnc(OC)c6)nc45)cc32)C1 (stereo not shown) [P-261, methyl 3-(6-(2-(2-methoxypyridin-4-yl)-5H-pyrrolo[2,3-b]pyrazin-7-yl)-1H-benzo[d]imidazol-1-yl)piperidine-1-carboxylate]
CC(C)(C)n1cnc2ccc(-c3c[nH]c4ncc(-c5cccc(N6CCCCS6(=O)=O)c5)nc34)cc21 [P-227, 2-[3-[7-(3-tert-butylbenzimidazol-5-yl)-5H-pyrrolo[2,3-b]pyrazin-2-yl]phenyl]thiazinane 1,1-dioxide]
CC(C)(C)n1cnc2ccc(-c3c[nH]c4ncc(-c5ccc(N6CCOCC6)cc5)nc34)cc21 [P-100, 4-[4-[7-(3-tert-butylbenzimidazol-5-yl)-5H-pyrrolo[2,3-b]pyrazin-2-yl]phenyl]morpholine]
CCCS(=O)(=O)Nc1cccc(-c2cnc3[nH]cc(-c4ccc5ncn(C(C)(C)C)c5c4)c3c2)c1 [P-216, N-[3-[3-(3-tert-butylbenzimidazol-5-yl)-1H-pyrrolo[2,3-b]pyridin-5-yl]phenyl]propane-1-sulfonamide]
N#Cc1cccc(C#Cc2cnc3[nH]cc(-c4ccc5ncn(C6CCCNC6)c5c4)c3c2)c1 (stereo not shown) [P-243, 3-[2-[3-[3-(3-piperidyl)benzimidazol-5-yl]-1H-pyrrolo[2,3-b]pyridin-5-yl]ethynyl]benzonitrile]
N#Cc1cccc(-c2cnc3[nH]cc(-c4ccc5ncn(-c6ccc(F)c(Cl)c6)c5c4)c3c2)c1 [P-210, 3-[3-[3-(3-chloro-4-fluoro-phenyl)benzimidazol-5-yl]-1H-pyrrolo[2,3-b]pyridin-5-yl]benzonitrile]
COc1cc(-c2cnc3[nH]cc(-c4ccc5ncn(C6CCCNC6)c5c4)c3n2)cc(OC)n1 (stereo not shown) [P-195, 2-(2,6-dimethoxy-4-pyridyl)-7-[3-(3-piperidyl)benzimidazol-5-yl]-5H-pyrrolo[2,3-b]pyrazine]
FC(F)n1cc(-c2cnc3[nH]cc(-c4ccc5ncn(C6CCCNC6)c5c4)c3n2)cn1 (stereo not shown) [P-257, 2-[1-(difluoromethyl)pyrazol-4-yl]-7-[3-(3-piperidyl)benzimidazol-5-yl]-5H-pyrrolo[2,3-b]pyrazine]
COc1cc(-c2cnc3[nH]cc(-c4ccc5ncn(C(C)C)c5c4)c3n2)ccn1 [P-113, 7-(3-isopropylbenzimidazol-5-yl)-2-(2-methoxy-4-pyridyl)-5H-pyrrolo[2,3-b]pyrazine]
COc1cc(-c2cnc3[nH]cc(-c4ccc5ncn(C6CCCN(C(C)=O)C6)c5c4)c3n2)ccn1 (stereo not shown) [P-260, 1-[3-[6-[2-(2-methoxy-4-pyridyl)-5H-pyrrolo[2,3-b]pyrazin-7-yl]benzimidazol-1-yl]-1-piperidyl]ethanone]
CC(C)(C)n1cnc2ccc(-c3c[nH]c4ncc(NC(=O)c5cccc(C#N)c5)cc34)cc21 [P-235, N-[3-(3-tert-butylbenzimidazol-5-yl)-1H-pyrrolo[2,3-b]pyridin-5-yl]-3-cyano-benzamide]
C#Cc1cnc2[nH]cc(-c3ccc4ncn(C(C)(C)C)c4c3)c2c1 [P-244, 1-tert-butyl-6-(5-ethynyl-1H-pyrrolo[2,3-b]pyridin-3-yl)benzimidazole]
CC(C)(C)n1cnc2ccc(-c3c[nH]c4ncc(-c5cccc(S(=O)(=O)N6CCCC6)c5)nc34)cc21 [P-229, 7-(3-tert-butylbenzimidazol-5-yl)-2-(3-pyrrolidin-1-ylsulfonylphenyl)-5H-pyrrolo[2,3-b]pyrazine]
COc1cc(C#Cc2cnc3[nH]cc(-c4ccc5ncn(C(C)(C)C)c5c4)c3c2)ccn1 [P-240, 1-(tert-butyl)-6-(5-((2-methoxypyridin-4-yl)ethynyl)-1H-pyrrolo[2,3-b]pyridin-3-yl)-1H-benzo[d]imidazole]
CC(C)(C)n1cnc2ccc(-c3c[nH]c4ncc(-c5cnc(N6CCOCC6)nc5)cc34)cc21 [P-266, 4-[5-[3-(3-tert-butylbenzimidazol-5-yl)-1H-pyrrolo[2,3-b]pyridin-5-yl]pyrimidin-2-yl]morpholine]
COc1cc(-c2cnc3[nH]cc(-c4ccc5ncn(C(C)(C)C)c5c4)c3n2)ccn1 [P-099, 7-(3-tert-butylbenzimidazol-5-yl)-2-(2-methoxy-4-pyridyl)-5H-pyrrolo[2,3-b]pyrazine]
COc1cnc2[nH]cc(-c3ccc4ncn(-c5cccc(Cl)c5)c4c3)c2c1 [P-105, 1-(3-chlorophenyl)-6-(5-methoxy-1H-pyrrolo[2,3-b]pyridin-3-yl)benzimidazole]
COc1cc(-c2cnc3[nH]nc(-c4ccc5ncn(C(C)(C)C)c5c4)c3c2)ccn1 [P-272, 3-(1-(tert-butyl)-1H-benzo[d]imidazol-6-yl)-5-(2-methoxypyridin-4-yl)-1H-pyrazolo[3,4-b]pyridine]
COc1cc(-c2cnc3[nH]cc(-c4ccc5ncn(C(C)(C)CO)c5c4)c3n2)ccn1 [P-186, 2-[6-[2-(2-methoxy-4-pyridyl)-5H-pyrrolo[2,3-b]pyrazin-7-yl]benzimidazol-1-yl]-2-methyl-propan-1-ol]
CC(C)(C)n1cnc2ccc(-c3c[nH]c4ncc(-c5cnn(CC(F)(F)F)c5)nc34)cc21 [P-256, 7-(3-tert-butylbenzimidazol-5-yl)-2-[1-(2,2,2-trifluoroethyl)pyrazol-4-yl]-5H-pyrrolo[2,3-b]pyrazine]
c1cc(N2CCOCC2)ccc1-c1cnc2[nH]cc(-c3ccc4ncn(C5CCCNC5)c4c3)c2n1 (stereo not shown) [P-101, 4-[4-[7-[3-(3-piperidyl)benzimidazol-5-yl]-5H-pyrrolo[2,3-b]pyrazin-2-yl]phenyl]morpholine]
COc1ncc(-c2cnc3[nH]cc(-c4ccc5ncn(C(C)(C)C)c5c4)c3n2)cn1 [P-263, 7-(3-tert-butylbenzimidazol-5-yl)-2-(2-methoxypyrimidin-5-yl)-5H-pyrrolo[2,3-b]pyrazine]
CC(C)(C)n1cnc2ccc(-c3c[nH]c4ncc(-c5ccnc(N6CCOCC6)c5)nc34)cc21 [P-228, 4-[4-[7-(3-tert-butylbenzimidazol-5-yl)-5H-pyrrolo[2,3-b]pyrazin-2-yl]-2-pyridyl]morpholine]
C#Cc1cnc2[nH]cc(-c3ccc4ncn(C5CCCNC5)c4c3)c2n1 (stereo not shown) [P-270, 2-ethynyl-7-[3-(3-piperidyl)benzimidazol-5-yl]-5H-pyrrolo[2,3-b]pyrazine]
c1cc(-c2cnc3[nH]cc(-c4ccc5ncn(C6CCCNC6)c5c4)c3n2)cc(N2CCOCC2)n1 (stereo not shown) [P-262, 4-[4-[7-[3-(3-piperidyl)benzimidazol-5-yl]-5H-pyrrolo[2,3-b]pyrazin-2-yl]-2-pyridyl]morpholine]
COc1cnc2[nH]cc(-c3ccc4ncn(-c5ccc(Cl)cc5)c4c3)c2c1 [P-104, 1-(4-chlorophenyl)-6-(5-methoxy-1H-pyrrolo[2,3-b]pyridin-3-yl)benzimidazole]
